The values that follow come from patent publication US20160176924A1, “MODIFIED PEPTIDES AS POTENT INHIBITORS OF THE PSD-95/NMDA RECEPTOR INTERACTION” (priority 2008, published 2016).

Data set [1] addresses T1, PDZ2 of PSD-95 (Homo sapiens, UniProt P78352).
T1 construct: PDZ2 (residues 155-249); made in house; host or cells: E. coli BL21-DE3 pLysS
As to the kind of experiment: FP heterologous competition binding assay. The conditions noted are these: for Ki: FP competition, mean ± SEM, NA = no activity/affinity. The source says: (§1) Determined IC50 values may be converted to Ki values.^5 Suitable fluorophores include either 5-FAM or Cy5, which may be coupled to a tripeptide (KSG or CSG) linker attached to the N-terminus of the undecapeptide, to give 5-FAM-NR2B, Cy5-NR2B, 5-FAM-CRIPT and Cy5-CRIPT. The 5-FAM fluorophore may be attached to the undecapeptides by coupling with HATU. The Cy5 fluorophore may be conjugated to the undecapeptides by coupling Cy5-maleimide to the cysteine side chain of the tripeptide sequence CSG attached to the N-terminus of the peptide, as detailed in the Methodology section.
(§2) To measure the affinities between non-fluorescent peptides and PDZ domains, heterologous competition bindings assay were performed. This was done by adding increasing concentrations of peptide to a fixed concentration of Cy5-NR2B, 5-FAM-NR2B, Cy5-CRIPT or 5-FAM-CRIPT (50 nM) and PDZ (20 μM for PDZ1, 3 μM for PDZ2 and 1-2 and 5 μM for PDZ3) in the same TBS buffer and conditions as described above. FP values were then fitted to the general equation: Y=Bottom+(Top−Bottom)/[1[…](10̂^X-logIC50)], where X is the logarithmic value of peptide concentration. Hereby the IC50 value was obtained, which is used to calculate the theoretical competitive inhibition constant, Ki.^5
(§3) A convenient and reliable way to examine interactions between peptide analogues and PDZ domains is by using a fluorescence polarization (FP) assay. The three PDZ domains, PDZ1-3, of PSD-95 were expressed individually as set out above, while PDZ1-2 was also expressed as a tandem construct. […] IC50 values were then converted to Ki values.^5

For data set [2], the target named is T2, PDZ1 of PSD-95 (Homo sapiens, UniProt P78352).
T2 construct: PSD-95 PDZ1 (residues 61-151); made in house; host or cells: E. coli BL21-DE3 pLysS
Nature of the data set: FP heterologous competition binding assay. The following applies: FP competition; mean ± SEM; NA = no activity/affinity.
Text: as §1, §2, §3

For data set [3], the target named is T3, PDZ3 of PSD-95 (Homo sapiens, UniProt P78352).
T3 construct: PDZ3 (residues 309-401); made in house; host or cells: E. coli BL21-DE3 pLysS
As to the kind of experiment: FP heterologous competition binding assay. The conditions noted are these: FP competition; mean ± SEM; NA = no activity/affinity.
Text: as §1, §2, §3

Data set [4] deals with T4, PSD-95's PDZ2 domain (Homo sapiens, UniProt P78352).
T4 construct: PDZ2 (residues 155-249); His-tag (thrombin-cleavable) (cleaved yes); made in house; host or cells: E. coli (as for the other PDZ constructs)
Nature of the data set: Polyhistidine pull-down assay. The conditions noted are these: 200 μM. It counts as binding.
Text: The polyhistidine pull-down is an in vitro technique that consists of a polyhistidine-tagged bait NRB2 or CRIPT protein C-terminal domain (e.g NR2B WT peptide with the sequence [sequence]) that can be used to identify competitors of a PDZ domain-binding partner (PDZ domain of PSD-95) (the prey). The bait protein is immobilized on cobalt chelated affinity gel. The bait serves as the secondary affinity support for the protein partner to the bait and for identifying competitors that can displace the prey from the bait. The competitors are peptide analogues, specifically an NMDAR/PSD-95 inhibitor of the present invention. PPIs, between the prey and bait are analyzed by chemically dissociating/eluting the bound prey (PDZ domain or peptide analogue) and visualizing the prey by SDS-PAGE and associated detection methods depending on the sensitivity requirements of the interacting proteins. These methods include Coomassie® Dye, silver, and zinc staining; western blotting; and [^35S] radioisotopic detection. Alternatively, the displaced prey detected on the gel, can be isolated from a polyacrylamide gel, and further analyzed. […]
As bait, a polyhistidine NR2B WT peptide with the sequence [sequence] was synthesized. […] Eluted PDZ2 was analyzed by SDS-PAGE and silver staining.

The target in data set [5] is T5, PDZ1-2 tandem of PSD-95 (Homo sapiens, UniProt P78352).
T5 construct: PDZ1-2 (residues 61-249) tandem; made in house; host or cells: E. coli BL21-DE3 pLysS
Nature of the data set: FP heterologous competition binding assay. The conditions noted are these: mean ± SEM.
Text: as §1, §2, §3

For data set [6], the system named is cultured cortical neurons. Nature of the data set: Neuronal NMDA excitotoxicity assay (LDH release). The following applies: 500 nM. In kind it is cell-based, rat. From the text: When cultured cortical neurons are exposed to high concentrations of NMDA, an excitoxic cascade is initiated, which leads to cellular damage and ultimately neuronal cell death. Consequently, the cell membranes are destroyed, and cytoplasmic enzymes are released into the cell surroundings. The extent of this neuronal cell death can be quantified by measuring the release of cytoplasmic lactate dehydrogenase (LDH) enzyme into the cell medium. The compounds of interest and control compound (3) are investigated with respect to their abilities to attenuate NMDA-mediated toxicity. Compounds that are active in this assay are both membrane permeable, and can prevent ex vivo excitotoxicity, which are important properties for therapeutics towards excitotoxicity mediated diseases.
Cortical neurons were surgically removed from rats (e.g. E21) and then cultured for 7-9 days in vitro in Neurobasal A medium with B-27 supplement (each supplied by Invitrogen), further supplemented with 1 mM glutamine, 50 units/ml penicillin, and 50 μg/ml streptomycin. The following steps were then performed:
1. Samples of the cultured cortical neurons were removed from the Neurobasal-A based culture medium, at various time points prior to exposure to compound, and placed into “transfection medium” ([…]; as defined by Bading et al (1993) Science 260, 181-186) comprising: 10% modified Minimum Essential Medium (supplied by Invitrogen; product no: 21090022; containing Earles salt, but no L-glutamine), 90% Salt-Glucose-Glycine (SGG) medium: (114 mM NaCl, 0.219% NaHCO3, 5.292 mM KCL, 1 mM MgCl2, 2 mM CaCl2, 10 mM HEPES, 1 mM Glycine, 30 mM glucose, 0.5 mM sodium pyruvate, 0.1% Phenol Red), insulin-transferrin-selenite supplement (supplied by Sigma: 7.5 μg insulin/ml, 7.5 μg transferring/ml and 7.5 ng sodium selenite/ml); with a final osmolarity of 325 mosm/l. All subsequent steps were performed in this TM medium. 2. Samples of neurons are exposed to an NMDAR/PSD-95 inhibitor of the invention (compounds 40, 52-90) at a final concentration of between 0.05-50 μM for a period of between 0.5 to 1.5 hours. […] 3. Each sample of neurons was washed at least one time in TM medium to remove the NMDAR/PSD-95 inhibitor, and placed in TM medium. 4. After various periods of time, the samples of neurons were exposed to NMDA at a concentration of between 10-100 μM for a period of 0.5 to 1.5 hours, preferably 1 hour, after which the samples were again placed in TM medium for 24 hours. 5. LDH in the cell medium was quantified using commercial available kits (e.g. Promega Biotech AB, cat no G1780).
In general terms: LDH in the medium is a marker of cell lysis.

Data set [7] in a line: Human blood plasma stability assay. In kind it is in vitro ADME. How it is done: In this assay, the half-life (T1/2) of a compound in blood plasma is measured in vitro, whereby its susceptibility to degradation by proteases, peptidases and general plasma contents is quantified.
Compounds of interest were dissolved in human blood plasma (270 μl; 3H Biomedical, Sweden, cat no 1300-1-P50) to a concentration of 0.25 mM (30 μL of 2.5 mM) and incubated at 37° C. Aliquots (30 μl) were removed at various time intervals (0, 5, 10, 20, 40, 80, 160, 320, 960, 1280, 2550, 4560 and 7240 min) and quenched with 60 μL trichloroacetic acid (aq., 5%). The aliquots were vortexed, and incubated for at least 15 min, at 4° C. prior to centrifugation at 18,000 g for 2 min and the supernatant was analyzed by RP-HPLC to quantify the remaining compound (absorbance at 218 nm).

Data set [8] deals with T6, PDZ1-2 of PSD-95 (Homo sapiens, UniProt P78352, I195W).
T6 construct: PDZ1-2 (residues 61-249) tandem; made in house; host or cells: E. coli BL21-DE3 pLysS
Nature of the data set: Stopped-flow fluorimetry (fluorescence titration assay). It counts as binding. How it is done: The HIS-PDZ2 and HIS-PDZ1-2 expression constructs of PSD-95 were genetically manipulated to encode a tryptophan, (in position 51 of SEQ ID NO: 4 and position 145 in SEQ ID NO: 8, respectively) instead of isoleucine. Binding between PDZ2 and PDZ1-2 and peptide ligand 74 was then monitored and quantified, by measuring the fluorescence increase from this tryptophan upon ligand recognition. (excitation λ at 280 nm, emission λ>320 nm). Stopped-flow measurements were performed at 10° C. or 25° C. on an SX-20MV stopped-flow spectrometer (Applied Photophysics, Leatherhead, UK). The peptide, in varying amounts, was rapidly mixed with a constant amount of PDZ and the change in fluorescence was measured over time. The fluorescence versus time plots was fitted to a single or double exponential equation, from which one or two observed rate constants were obtained. Observed rate constants were then plotted against the concentration of the varied species and microscopic rate constants determined by fitting the data to the equation for a bimolecular association (Eq. 1)
kobs=((kon^2(n−[A]0)^2+koff^2+2konkoff(n+[A]0))^0.5 (Eq. 1) […]
The equilibrium dissociation constant Kd of the PDZ-peptide complex was calculated by the experimental determined kon and koff.

As a reminder, the Ki is the dissociation constant of the complex between target and ligand, obtained from inhibition or displacement. On to `CN[C@@H](CCC(=O)O)C(=O)N[C@H](C(=O)N[C@@H](C)C(=O)N[C@H](C(=O)O)C(C)C)C(C)O` (stereo partly drawn) [Compound 40, N-Methyl-ETAV], for which, in data set [1], the “fold increase in Ki (loss of affinity) compared to NR2B peptide (1), PDZ2” value is reported as 2 fold. For the same molecule, the inhibitory constant (Ki) is 8.9 ± 0.5 µM in data set [1], 11 ± 0.47 µM in data set [2] and 78 ± 1.5 µM in data set [3]. Also, in data set [4], the “inhibition of PDZ2 binding to NR2B WT bait in pull-down, in words” value was “very effective inhibitor”.
For orientation: half-life means the time in which the quantity being followed falls by half. Regarding `CC[C@H](C)[C@H](NC(=O)CCOCCOCCOCCOCCOCCOCCOCCOCCOCCOCCOCCOCCOCCC(=O)N[C@H](C(=O)N[C@@H](CCC(=O)O)C(=O)N[C@@H](CO)C(=O)N[C@@H](CC(=O)O)C(=O)N[C@H](C(=O)O)C(C)C)[C@@H](C)CC)C(=O)N[C@@H](CCC(=O)O)C(=O)N[C@@H](CO)C(=O)N[C@@H](CC(=O)O)C(=O)N[C@H](C(=O)O)C(C)C` [(IESDV)2PEG12 (74), (IESDV)2PEG12], the inhibition constant Ki is approximately 100 nM in data set [5], 3.1 ± 0.13 µM in data set [1], 22 ± 1.4 µM in data set [2] and approximately 100 nM in data set [8]. In data set [6], the “effect on NMDA-mediated excitotoxicity, in words” value is “inhibit neuronal excitotoxicity, as efficiently as the clinical candidate Tat-N2B (3)”. Further, the “degradation in human blood plasma, in words” value in data set [7] was “no significant degradation could be detected over a time period of 6 days”. In data set [7] (human, plasma, Blood plasma half life (T1/2)), the half-life at […] was more than 5.56 days.
